Data set [1] has as its system CYP6M2. Particulars: read-out: IC50 CYP6M2, inhibition of diethoxyfluorescein metabolism, cited from earlier work.
Data set [2] concerns CYP6M2, CYP6P3 and CYP6P9a. Put plainly: Pyrethroid metabolism (insecticide depletion), across CYP6M2, CYP6P3 and CYP6P9a. The settings on record: for vulnerability for metabolic attack by the three enzymes, rank in words: CYP6P3, CYP6M2 and CYP6P9a, among the six pyrethroids. Format: in vitro ADME, Anopheles gambiae and An. funestus. The source says: In this study, the half maximal inhibitory concentration (IC50), which provides a value for inhibition of each P450 by each pyrethroid (also referred to as ‘binding affinity’), and the percentage depletion, which gives a value for metabolism of each pyrethroid by each P450 (also referred to as vulnerability to metabolic attack), were both included as parameters to establish a P450s structural activity relationship model. This model was used to understand both the chemistry of the pyrethroids and the interaction with mosquito P450s that function as monooxygenases in metabolic resistance, to predict cross-resistance liabilities in vivo. […] A low percentage depletion indicates low metabolism of the pyrethroid, which means that it may be less vulnerable to resistance mediated by P450s.
The values for percentage depletion (metabolism) of each pyrethroid by three of the enzymes CYP6M2, CYP6P3 and CYP6P9a, which were expressed in a single plasmid construct, were also extracted from the same sources and used for the comparative analysis.

For data set [3], the system named is CYP6P9a. The settings on record: Incubation time 2h; mean ± SD; ref [38], [41]; cited from earlier work.
In data set [4] the test system is Anopheles funestus. The settings on record: F1, house resting indoors, WHO Bioassay 1998, cited from earlier work.
Where [5] appears, read: footnote b, ref Yunta et al. 2019[10].
Setting [6] is: mean ± SD across CYP6M2, CYP6P3, CYP6P9a.
Setting [7] is: ID 200044, 4/2009-4/2010, Kalungama, Malawi, ref Wondji CS et al. Proc Natl Acad Sci U S A. 2012;109(47):19063-70.
Setting [8] is: ID 200045, 4/2009-4/2010, Chinkole, Malawi, ref Wondji CS et al. Proc Natl Acad Sci U S A. 2012;109(47):19063-70.
Where [9] appears, read: ID 200048, 3/2000-7/2002, Catembe, Mozambique, ref Casimiro S et al. J Med Entomol. 2006;43(2):267-75.
The mark [10] stands for this setting: footnote a, ref Yunta et al. 2016[8].
The mark [11] stands for this setting: ID 200117, 4/2009-11/2009, Tororo, Uganda, ref Morgan JC et al. PLoS One. 2010;5(7).

“Also recorded” adds a separate entry of the source. Read-outs that look alike come from different tables or passages of the source.

As to `Cc1c(COC(=O)[C@@H]2[C@H](/C=C(\Cl)C(F)(F)F)C2(C)C)cccc1-c1ccccc1` (racemic) [Bifenthrin, bifenthrin], in data set [1] (setting [5]), the concentration for half-maximal inhibition (IC50) was 5.6 µM. Further, in data set [2], the “vulnerability for metabolic attack by the three enzymes, rank in words” value (from here on “vulnerability for metabolic attack”) is “lowest vulnerability”. For the same compound, the “% Insecticide depletion Mean across P450s” value in data set [2] (setting [6]) is reported as 56.3%. Further, in data set [3], the “% Insecticide depletion CYP6P9a” value was 53.4 ± 1.6%.

Turning to `CC1(C)[C@H](C(=O)O[C@H](C#N)c2cccc(Oc3ccccc3)c2)[C@@H]1/C=C(\Cl)C(F)(F)F` (racemic) [λ-Cyhalothrin, λ-cyhalothrin], the IC50 in data set [1] (setting [5]) was 6.6 µM. Moreover, the “% Insecticide depletion Mean across P450s” value in data set [2] (setting [6]) is 66.6 ± 17.0%. Moreover, the results for the mortality in data set [4] (setting [7]), in data set [4] (setting [8]) and in data set [4] (setting [9]) were 34.3, 60 and 59.3, respectively. In addition, the “% Insecticide depletion CYP6P9a” value in data set [3] is given as 67.1 ± 3.1%.

With `CC1(C)[C@H](C(=O)O[C@H](C#N)c2cccc(Oc3ccccc3)c2)[C@@H]1C=C(Br)Br` [Deltamethrin, deltamethrin], the 50% inhibitory concentration (IC50) in data set [1] (setting [10]) was 4.2 µM. Besides, in data set [2] (setting [6]), the “% Insecticide depletion Mean across P450s” value is listed as 83.5 ± 24.2%. Moreover, the mortality in data set [4] (setting [7]) is 51.2; in data set [4] (setting [8]), 68.5; in data set [4] (setting [9]) it was 55.2; in data set [4] (setting [11]), 39.

On to `CCOc1ccc(C(C)(C)COCc2cccc(Oc3ccccc3)c2)cc1` [Etofenprox, etofenprox], for which the IC50 in data set [1] (setting [5]) was 12 µM. In addition, the “vulnerability for metabolic attack” value in data set [2] is “most vulnerable”. In data set [2] (by CYP6P3, CYP6M2 and CYP6P9a), the metabolism in words result is given as “strongly metabolised; also recorded: most depleted”. Moreover, the “% Insecticide depletion Mean across P450s” value in data set [2] (setting [6]) was determined as 89.0 ± 17.5%. For the same compound, the “% Insecticide depletion CYP6P9a” value in data set [3] is given as 98.5 ± 0.2%.

For the compound `CC1(C)C(C=C(Cl)Cl)C1C(=O)OCc1cccc(Oc2ccccc2)c1` (stereo not shown) [Permethrin, permethrin], the concentration for half-maximal inhibition (IC50) in data set [1] (setting [10]) is 8.1 µM. Also, the “% Insecticide depletion Mean across P450s” value in data set [2] (Anopheles gambiae and An. funestus) worked out at 82.1 ± 21.3%. Also, the “vulnerability for metabolic attack” value in data set [2] is listed as “most vulnerable”. The mortality in data set [4] (setting [7]) was 67.4; in data set [4] (setting [9]), 100; in data set [4] (setting [11]) it was 69. For the same compound, in data set [3], the “% Insecticide depletion CYP6P9a” value is recorded as 87.8 ± 0.7%.

Broadly, the IC50 is the midpoint of a concentration-inhibition curve.

These data come from PMC7893915, “Assessing cross-resistance within the pyrethroids in terms of their interactions with key cytochrome P450 enzymes and resistance in vector populations” (Parasites & Vectors, 2021).
